According to PubChem BioAssay AID210 (DTP/NCI, 2004):
Values joined by “and” are separate entries in the source; they are usually repeats but may differ in a detail not shown here. Equal entries are not always repeated. Inconclusive results and toxic doses are left out. The calls were made as follows: active = survival T/C of 150% or more; inactive = T/C below 125% in these data.

Test system: CD2F1 mice, ip Colon 26 adenocarcinoma, median survival T/C
Experiment: NCI In Vivo Anticancer Drug Screen. Data for tumor model Colon 26 Adenocarcinoma (intraperitoneal) in CD2F1 (CDF1) mice
Conditions: endpoint: median survival time, higher = longer survival
Procedure: The antitumor activity of compounds was measured in mice bearing transplantable tumors. Survival or tumor size were measured and the results are expressed as the measurement made in the treated group (T) divided by the measurement made in the vehicle treated control group (C). The tumor model used in this assay is Colon 26 Adenocarcinoma (intraperitoneal) in CD2F1 (CDF1) mice

Measured: T/C

COc1cccc2c1C(=O)c1c(O)c3c(c(O)c1C2=O)C[C@@](O)(C(=O)CO)C[C@@H]3OC1CC(N)C(O)C(C)O1 (stereo partly specified)
active: dose: 0.25 mg/kg/injection, schedule: Q01DX009 (ip), vehicle: saline 151 % of control | dose: 0.5 mg/kg/injection, schedule: Q01DX009 (ip), vehicle: saline 154 % of control | dose: 1.0 mg/kg/injection, schedule: Q01DX009 (ip), vehicle: saline 243 % of control | dose: 1.73 mg/kg/injection, schedule: Q04DX003 (ip), vehicle: water 157 % of control | dose: 2.0 mg/kg/injection, schedule: Q01DX009 (ip), vehicle: saline 310 % of control | dose: 2.0 mg/kg/injection, schedule: Q04DX003 (ip), vehicle: saline 278 % of control | dose: 4.0 mg/kg/injection, schedule: Q04DX003 (ip), vehicle: saline 334 % of control | dose: 4.8 mg/kg/injection, schedule: Q04DX003 (ip), vehicle: water 152 % of control | dose: 6.3 mg/kg/injection, schedule: Q07DX002 (ip), vehicle: saline 197 % of control | dose: 10.5 mg/kg/injection, schedule: Q07DX002 (ip), vehicle: saline 205 % of control | dose: 19.0 mg/kg/injection, schedule: Q07DX002 (sc), vehicle: saline 155 % of control
inactive: dose: 0.38 mg/kg/injection, schedule: Q04DX003 (ip), vehicle: water 113 % of control | dose: 0.75 mg/kg/injection, schedule: Q04DX003 (ip), vehicle: water 117 % of control | dose: 1.5 mg/kg/injection, schedule: Q04DX003 (ip), vehicle: water 106 % of control | dose: 1.5 mg/kg/injection, schedule: Q07DX003 (iv), vehicle: saline 111 % of control | dose: 3.0 mg/kg/injection, schedule: Q04DX003 (ip), vehicle: water 91 % of control | dose: 3.0 mg/kg/injection, schedule: Q07DX003 (iv), vehicle: saline 97 % of control | dose: 3.3 mg/kg/injection, schedule: Q07DX002 (iv), vehicle: saline 105 % of control | dose: 3.7 mg/kg/injection, schedule: Q07DX003 (iv), vehicle: saline 112 % of control | dose: 4.3 mg/kg/injection, schedule: Q07DX002 (iv), vehicle: saline 106 % of control | dose: 4.5 mg/kg/injection, schedule: Q07DX002 (iv), vehicle: saline 108 % of control | dose: 4.5 mg/kg/injection, schedule: Q07DX002 (sc), vehicle: saline 101 % of control | dose: 4.8 mg/kg/injection, schedule: Q07DX003 (iv), vehicle: saline 107 % of control and 108 % of control | dose: 5.4 mg/kg/injection, schedule: Q07DX002 (iv), vehicle: saline 111 % of control | dose: 5.8 mg/kg/injection, schedule: Q07DX003 (iv), vehicle: saline 115 % of control | dose: 6.0 mg/kg/injection, schedule: Q04DX003 (ip), vehicle: water 120 % of control | dose: 6.3 mg/kg/injection, schedule: Q07DX002 (iv), vehicle: saline 105 % of control and 106 % of control | dose: 6.3 mg/kg/injection, schedule: Q07DX003 (iv), vehicle: saline 113 % of control and 114 % of control and 115 % of control | dose: 6.5 mg/kg/injection, schedule: Q07DX002 (iv), vehicle: saline 122 % of control | dose: 7.3 mg/kg/injection, schedule: Q07DX002 (iv), vehicle: saline 117 % of control | dose: 7.3 mg/kg/injection, schedule: Q07DX002 (sc), vehicle: saline 114 % of control | dose: 8.1 mg/kg/injection, schedule: Q07DX002 (iv), vehicle: saline 104 % of control and 112 % of control | dose: 8.1 mg/kg/injection, schedule: Q07DX003 (iv), vehicle: saline 111 % of control and 119 % of control (2×) | dose: 8.7 mg/kg/injection, schedule: Q07DX002 (iv), vehicle: saline 121 % of control | dose: 9.0 mg/kg/injection, schedule: Q07DX003 (iv), vehicle: saline 111 % of control | dose: 9.3 mg/kg/injection, schedule: Q07DX002 (iv), vehicle: saline 109 % of control | dose: 9.8 mg/kg/injection, schedule: Q07DX002 (iv), vehicle: saline 124 % of control | dose: 10.5 mg/kg/injection, schedule: Q07DX002 (iv), vehicle: saline 111 % of control and 88 % of control | dose: 10.5 mg/kg/injection, schedule: Q07DX003 (iv), vehicle: saline 120 % of control and 94 % of control | dose: 12.0 mg/kg/injection, schedule: Q04DX003 (ip), vehicle: water 116 % of control | dose: 12.0 mg/kg/injection, schedule: Q07DX002 (iv), vehicle: saline 123 % of control | dose: 12.0 mg/kg/injection, schedule: Q07DX002 (sc), vehicle: saline 122 % of control | dose: 12.0 mg/kg/injection, schedule: Q07DX003 (iv), vehicle: saline 96 % of control | dose: 14.0 mg/kg/injection, schedule: Q07DX002 (iv), vehicle: saline 115 % of control | dose: 14.0 mg/kg/injection, schedule: Q07DX003 (iv), vehicle: saline 117 % of control

O=C(O)c1ccc(C(=O)O)c(C(=O)O)c1.[NH-]C1CCCCC1[NH-].[Pt+2]
inactive: dose: 2.0 mg/kg/injection, schedule: Q01DX004 (ip), vehicle: sodium bicarbonate 106 % of control | dose: 3.12 mg/kg/injection, schedule: Q04DX003 (ip), vehicle: sodium bicarbonate 114 % of control | dose: 4.0 mg/kg/injection, schedule: Q01DX004 (ip), vehicle: sodium bicarbonate 101 % of control | dose: 6.25 mg/kg/injection, schedule: Q04DX003 (ip), vehicle: sodium bicarbonate 111 % of control | dose: 8.0 mg/kg/injection, schedule: Q01DX004 (ip), vehicle: sodium bicarbonate 105 % of control | dose: 8.8 mg/kg/injection, schedule: Q01DX001 (iv), vehicle: saline 96 % of control | dose: 9.1 mg/kg/injection, schedule: Q04DX004 (iv), vehicle: sodium bicarbonate 105 % of control | dose: 13.2 mg/kg/injection, schedule: Q01DX001 (iv), vehicle: saline 87 % of control | dose: 13.5 mg/kg/injection, schedule: Q04DX004 (iv), vehicle: sodium bicarbonate 104 % of control | dose: 19.8 mg/kg/injection, schedule: Q01DX001 (ip), vehicle: saline 92 % of control | dose: 20.0 mg/kg/injection, schedule: Q04DX004 (iv), vehicle: sodium bicarbonate 114 % of control | dose: 29.6 mg/kg/injection, schedule: Q01DX001 (ip), vehicle: saline 96 % of control | dose: 35.0 mg/kg/injection, schedule: Q04DX002 (ip), vehicle: sodium bicarbonate 103 % of control | dose: 44.4 mg/kg/injection, schedule: Q01DX001 (iv), vehicle: saline 121 % of control | dose: 100.0 mg/kg/injection, schedule: Q04DX003 (ip), vehicle: sodium bicarbonate 101 % of control
active: dose: 8.8 mg/kg/injection, schedule: Q01DX001 (ip), vehicle: saline 150 % of control | dose: 12.5 mg/kg/injection, schedule: Q04DX003 (ip), vehicle: sodium bicarbonate 167 % of control | dose: 25.0 mg/kg/injection, schedule: Q04DX003 (ip), vehicle: sodium bicarbonate 167 % of control | dose: 50.0 mg/kg/injection, schedule: Q04DX003 (ip), vehicle: sodium bicarbonate 159 % of control

COC(=O)[C@@]12OC[C@]34[C@H]([C@@H](O)[C@@H]1O)[C@@]1(C)CC(=O)C(O)=C(C)[C@@H]1C[C@H]3OC(=O)[C@H](OC(=O)/C=C(\C)C(C)C)[C@@H]24
inactive: dose: 0.66 mg/kg/injection, schedule: Q04DX003 (iv), vehicle: saline with Tween-80 97 % of control | dose: 1.0 mg/kg/injection, schedule: Q04DX003 (iv), vehicle: saline with Tween-80 94 % of control | dose: 1.5 mg/kg/injection, schedule: Q04DX003 (iv), vehicle: saline with Tween-80 94 % of control | dose: 2.3 mg/kg/injection, schedule: Q04DX003 (iv), vehicle: saline with Tween-80 92 % of control | dose: 3.5 mg/kg/injection, schedule: Q04DX003 (iv), vehicle: saline with Tween-80 96 % of control

C[C@@]1(CO)[C@H](O)CC[C@@]2(C)[C@H]1CC[C@H]1C[C@@H]3C[C@@]12CC[C@@]3(O)COC(=O)CN
inactive: dose: 12.5 mg/kg/injection, schedule: Q01DX009 (ip), vehicle: saline + alcohol 113 % of control | dose: 25.0 mg/kg/injection, schedule: Q01DX009 (ip), vehicle: saline + alcohol 95 % of control | dose: 25.0 mg/kg/injection, schedule: Q04DX003 (iv), vehicle: saline 115 % of control | dose: 50.0 mg/kg/injection, schedule: Q01DX009 (ip), vehicle: saline + alcohol 106 % of control | dose: 50.0 mg/kg/injection, schedule: Q04DX003 (iv), vehicle: saline 118 % of control | dose: 75.0 mg/kg/injection, schedule: Q01DX009 (ip), vehicle: saline + alcohol 94 % of control | dose: 100.0 mg/kg/injection, schedule: Q04DX003 (iv), vehicle: saline 100 % of control
